Drawing on US8691855B2, “Compounds, isomer thereof, or pharmaceutically acceptable salts thereof as vanilloid receptor antagonist and pharmaceutical compositions containing the same” (Amorepacific Corporation, priority 2008, dated 2014), this text covers IC50 and inhibition in vivo for 13 compounds.

Test [1] has as its target T1, vanilloid receptor (Rattus norvegicus, UniProt O35433).
T1 construct: DRG nerve cells from the primary culture of 2 days were equilibrated; endogenous in cells; host or cells: primary culture of dorsal root ganglion neurons from neonatal SD rats
In words: 45Ca influx test (antagonist calcium uptake test) in rat DRG neurons stimulated with capsaicin. The class given is cell-based. The note with it: neonatal SD rat DRG neurons; capsaicin 0.5 μM; 45Ca. The method, boiled down:
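Neonatal SD rat DRG neurons, cultured 2 days with NGF 200 ng/ml, exposed to test compound plus 0.5 μM capsaicin and 45Ca (10 μCi/ml) in HEPES-buffered Ca/Mg-free HBSS, pH 7.4, 10 min at room temperature. Influx counted by scintillation; activity as percent inhibition of the 0.5 μM capsaicin maximal response.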

The test system of test [2] is Male ICR mice. Put plainly: Analgesic activity test: mouse writhing test by inducing with phenyl-p-quinone. The class given is in vivo. The note with it: po, p.o., read-out: Analgesic effect (% Inhibition). As for the experimental part: 2. Analgesic Activity Test: Mouse Writhing Test by Inducing with Phenyl-p-quinone Male ICR mice (mean body weight 25 g) were maintained in a controlled lighting environment (12 h on/12 h off) for experiment. Animals received an intraperitoneal injection of 0.3 ml of the chemical irritant phenyl-p-quinone (dissolved in saline containing 5% ethanol to be a close of 4.5 mg/kg) and 6 mins later, the number of abdominal constrictions was counted in the subsequent 6 mins period. Animals (10 animals/group) received 0.2 ml of test compounds solution in vehicle of ethanol/Tween 80/saline (Oct. 10, 1980) intraperitoneally 30 min before the injection of phenyl-p-quinone. In the case of oral administration, 0.2 ml of test compounds solution in vehicle of ethanol/Tween 80/saline (5/5/90) were administered 54 min prior to the 0.2 ml of 0.02% phenyl-p-quinone injection. A reduction in the number of writhes responding to the test drug compound relative to the number responding in saline control group was considered to be indicative of an analgesic effect. Analgesic effect was calculated by % inhibition equation (% inhibition=(C-T)/C×100), wherein C and T represent the number of writhes in control and compound-treated group, respectively.
In general terms: Writhing tests count abdominal constrictions after an irritant is injected.

T1 sequence (O35433 whole entry): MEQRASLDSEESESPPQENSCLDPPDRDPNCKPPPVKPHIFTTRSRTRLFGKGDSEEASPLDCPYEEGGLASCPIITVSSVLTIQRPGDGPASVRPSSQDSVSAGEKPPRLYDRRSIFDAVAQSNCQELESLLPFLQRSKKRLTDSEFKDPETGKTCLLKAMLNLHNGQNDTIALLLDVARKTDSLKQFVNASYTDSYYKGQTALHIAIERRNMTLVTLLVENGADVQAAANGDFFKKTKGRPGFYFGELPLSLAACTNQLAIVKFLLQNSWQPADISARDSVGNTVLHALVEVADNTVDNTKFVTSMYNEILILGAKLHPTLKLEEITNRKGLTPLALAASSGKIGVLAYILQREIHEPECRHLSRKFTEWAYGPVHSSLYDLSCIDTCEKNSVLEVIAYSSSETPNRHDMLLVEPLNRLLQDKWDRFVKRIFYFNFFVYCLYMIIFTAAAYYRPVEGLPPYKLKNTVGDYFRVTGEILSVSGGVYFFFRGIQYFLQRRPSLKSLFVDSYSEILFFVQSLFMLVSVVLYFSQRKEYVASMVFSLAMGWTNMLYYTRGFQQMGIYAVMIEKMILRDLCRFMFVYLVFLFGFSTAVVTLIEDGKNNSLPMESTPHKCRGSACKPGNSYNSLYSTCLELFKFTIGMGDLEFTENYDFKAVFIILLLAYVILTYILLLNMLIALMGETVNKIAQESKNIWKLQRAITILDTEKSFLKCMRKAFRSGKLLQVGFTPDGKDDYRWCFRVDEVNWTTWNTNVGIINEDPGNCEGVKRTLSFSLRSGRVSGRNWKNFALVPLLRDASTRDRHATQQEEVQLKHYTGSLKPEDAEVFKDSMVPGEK

Usually IC50 stands for the midpoint of a concentration-inhibition curve. In the case of `C[C@@H](NC(=O)c1csc(-c2cccc(C(F)(F)F)c2)n1)c1cc(F)c(NS(C)(=O)=O)c(F)c1` [Example 94, 2-(3-Trifluoromethyl-phenyl)-thiazole-4-carboxylic acid [1-(3,5-difluoro-4-methanesulfonylamino-phenyl)-ethyl]-amide], the IC50 in test [1] was 360 nM. The inhibition in vivo at 3 mg/kg in test [2] is 46%.
In the case of `C[C@@H](NC(=O)c1coc(Oc2cccc(C(F)(F)F)c2)n1)c1cc(F)c(NS(C)(=O)=O)c(F)c1` [Example 2, 2-(3-Trifluoromethyl-phenoxy)-oxazole-4-carboxylic acid [1-(3,5-difluoro-4-methanesulfonylamino-phenyl)-ethyl]-amide], in test [1], the half-maximal inhibitory concentration (IC50) was determined as 410 nM. The inhibition in vivo at 3 mg/kg in test [2] amounted to 32%.
Take `CC(C)c1cccc(Oc2nc(C(=O)N[C@H](C)c3cc(F)c(NS(C)(=O)=O)c(F)c3)co2)c1` [Example 4, 2-(3-Isopropyl-phenoxy)-oxazole-4-carboxylic acid [1-(3,5-difluoro-4-methanesulfonylamino-phenyl)-ethyl]-amide]: in test [1], the half-inhibitory concentration (IC50) was found to be 80 nM. In addition, the inhibition in vivo at 3 mg/kg in test [2] came out at 28%.
The like results for `CS(=O)(=O)Nc1ccc(CNC(=O)c2ccc(-c3ccccc3C(F)(F)F)o2)cc1F` [Example 117, 5-(2-Trifluoromethyl-phenyl)-furan-2-carboxylic acid 3-fluoro-4-methanesulfonylamino-benzylamide] were, in that order, 680 nM and 39%.
On to `C[C@@H](NC(=O)c1csc(-c2cc(C(F)(F)F)cc(C(F)(F)F)c2)n1)c1cc(F)c(NS(C)(=O)=O)c(F)c1` [Example 93, 2-(3,5-Bis-trifluoromethyl-phenyl)-thiazole-4-carboxylic acid [1-(3,5-difluoro-4-methanesulfonylamino-phenyl)-ethyl]-amide], for which, in test [1], the IC50 worked out at 910 nM. For the same compound, the inhibition in vivo at 3 mg/kg in test [2] amounted to 41%.
Consider `CCCc1c(Oc2nc(C(=O)N[C@H](C)c3cc(F)c(NS(C)(=O)=O)c(F)c3)co2)cccc1C(F)(F)F` [Example 42, 2-(2-Propyl-3-trifluoromethyl-phenoxy)-oxazole-4-carboxylic acid [1-(3,5-difluoro-4-methanesulfonylamino-phenyl)-ethyl]-amide], for which the IC50 in test [1] came out at 130 nM. In test [2], the inhibition in vivo at 0.3 mg/kg came to 30%.
With `C[C@@H](NC(=O)c1csc(-c2cccc(C3CC3)c2)n1)c1cc(F)c(NS(C)(=O)=O)c(F)c1` [Example 101, 2-(3-Cyclopropyl-phenyl)-thiazole-4-carboxylic acid [1-(3,5-difluoro-4-methanesulfonylamino-phenyl)-ethyl]-amide], in test [1], the 50% inhibitory concentration (IC50) was 73 nM. Also, the inhibition in vivo at 3 mg/kg in test [2] is 33%.
With `CC(c1cccc(Oc2nc(C(=O)N[C@H](C)c3cc(F)c(NS(C)(=O)=O)c(F)c3)co2)c1)C(F)(F)F` (some centres unmarked) [Example 35, 2-[3-(2,2,2-Trifluoro-1-methyl-ethyl)-phenoxy]-oxazole-4-carboxylic acid [1-(3,5-difluoro-4-methanesulfonylamino-phenyl)-ethyl]-amide], the IC50 in test [1] turned out to be 1800 nM. Moreover, the inhibition in vivo at 0.3 mg/kg in test [2] was found to be 29%.
Take `C[C@@H](NC(=O)c1ccc(-c2cc(C(F)(F)F)cc(C(F)(F)F)c2)o1)c1cc(F)c(NS(C)(=O)=O)c(F)c1` [Example 123, 5-(3,5-Bis-trifluoromethyl-phenyl)-furan-2-carboxylic acid [1-(3,5-difluoro-4-methanesulfonylamino-phenyl)-ethyl]-amide]: the IC50 in test [1] was 45 nM. For the same compound, the inhibition in vivo at 0.3 mg/kg in test [2] was 21%.
For the compound `CC1CCc2c(Oc3nc(C(=O)N[C@H](C)c4cc(F)c(NS(C)(=O)=O)c(F)c4)co3)cccc21` (some centres unmarked) [Example 30, 2-(1-Methyl-indan-4-yloxy)-oxazole-4-carboxylic acid [1-(3,5-difluoro-4-methanesulfonylamino-phenyl)-ethyl]-amide], in test [1], the IC50 worked out at 50 nM. The inhibition in vivo at 3 mg/kg in test [2] was found to be 16%.
Regarding `C[C@@H](NC(=O)c1coc(Oc2cccc(C(F)(F)F)c2C2CC2)n1)c1cc(F)c(NS(C)(=O)=O)c(F)c1` [Example 46, 2-(2-Cyclopropyl-3-trifluoromethyl-phenoxy)-oxazole-4-carboxylic acid [1-(3,5-difluoro-4-methanesulfonylamino-phenyl)-ethyl]-amide], in test [1], the IC50 stood at 430 nM. Also, the inhibition in vivo at 3 mg/kg in test [2] turned out to be 53%.
Turning to `C[C@@H](NC(=O)c1coc(Oc2cccc(C3CC3)c2)n1)c1cc(F)c(NS(C)(=O)=O)c(F)c1` [Example 32, 2-(3-Cyclopropyl-phenoxy)-oxazole-4-carboxylic acid [1-(3,5-difluoro-4-methanesulfonylamino-phenyl)-ethyl]-amide], the IC50 in test [1] is 280 nM. The inhibition in vivo at 3 mg/kg in test [2] stood at 32%.
As for `CC(C)c1cccc(-c2nc(C(=O)N[C@H](C)c3cc(F)c(NS(C)(=O)=O)c(F)c3)cs2)c1` [Example 80, 2-(3-Isopropyl-phenyl)-thiazole-4-carboxylic acid [1-(3,5-difluoro-4-methanesulfonylamino-phenyl)-ethyl]-amide], the IC50 in test [1] came to 30 nM. Also, in test [2], the inhibition in vivo at 3 mg/kg was found to be 22%.
